Test results as given in PubChem BioAssay AID1963433 (Molecular Pharmacology Branch, DTP, NCI, 2024).
“And” between values parts separate entries of the source, which are not always exact repeats. Identical values can stand only once. Blank lines part the entries; values can stand above or below the compound they belong to.

System: 772245-204-R-J1-PDC complex spheroid growth
Experiment: Anticancer human tumor 772245-204-R-J1-PDC patient-derived rhabdomyosarcoma cell line growth inhibition [Asc]
Conditions: for viability, T/C: stronger effect = lower value
How it was run: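 Spheroid model: tumor line + HUVEC + hMSC. Single agents and combinations; top conc. at/near clinical Cmax (10 microM if undetermined), half-log dilutions. DMSO stocks at 800-fold test concentration.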

[1] = curve of first compound, second compound 0.1 µM
[2] = curve of first compound, second compound 0.316 µM
[3] = curve of first compound, second compound 1 µM
[4] = curve of first compound, second compound 3.16 µM
[5] = curve of first compound, second compound 10 µM
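Further: compound exposure lasted seven days.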
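Wherever viability, T/C is given: 100% = DMSO vehicle control viability.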

IC50 [1]: 22 nM | IC50 [2]: 6.58 nM | IC50 [3]: < 0.949 nM | IC50 [4]: < 0.949 nM | IC50 [5]: < 0.949 nM
SMILES: NC(=O)C(=Cn1cnc(-c2cc(C(F)(F)F)cc(C(F)(F)F)c2)n1)c1cncnc1 + Cc1c(S(C)(=O)=O)c(-c2cc(F)cc(N3CCN(c4ccc(NS(=O)(=O)c5ccc(NC(CCN6CCC(C(=O)OCCCP(=O)(O)O)CC6)CSc6ccccc6)c(S(=O)(=O)C(F)(F)F)c5)cc4)CC3)c2)c(-c2ccc(Cl)cc2)n1C(C)C
viability, T/C (second compound 0.1 µM, first compound 0.000949 µM): 80.2% | viability, T/C (second compound 0.1 µM, first compound 0.003 µM): 72.2% | viability, T/C (second compound 0.1 µM, first compound 0.00949 µM): 64% | viability, T/C (second compound 0.1 µM, first compound 0.03 µM): 43.2% | viability, T/C (second compound 0.1 µM, first compound 0.0949 µM): 29.6% | viability, T/C (second compound 0.1 µM, first compound 0.3 µM): 12.6% | viability, T/C (second compound 0.316 µM, first compound 0.000949 µM): 58.1% | viability, T/C (second compound 0.316 µM, first compound 0.003 µM): 64% | viability, T/C (second compound 0.316 µM, first compound 0.00949 µM): 42.1% | viability, T/C (second compound 0.316 µM, first compound 0.03 µM): 29.2% | viability, T/C (second compound 0.316 µM, first compound 0.0949 µM): 10.3% | viability, T/C (second compound 0.316 µM, first compound 0.3 µM): 3.73% | viability, T/C (second compound 1 µM, first compound 0.000949 µM): 41.2% | viability, T/C (second compound 1 µM, first compound 0.003 µM): 34.8% | viability, T/C (second compound 1 µM, first compound 0.00949 µM): 24% | viability, T/C (second compound 1 µM, first compound 0.03 µM): 8.43% | viability, T/C (second compound 1 µM, first compound 0.0949 µM): 4.25% | viability, T/C (second compound 1 µM, first compound 0.3 µM): 1.91% | viability, T/C (second compound 3.16 µM, first compound 0.000949 µM): 42.5% | viability, T/C (second compound 3.16 µM, first compound 0.003 µM): 27.8% | viability, T/C (second compound 3.16 µM, first compound 0.00949 µM): 23.9% | viability, T/C (second compound 3.16 µM, first compound 0.03 µM): 2.44% | viability, T/C (second compound 3.16 µM, first compound 0.0949 µM): 0.58% | viability, T/C (second compound 3.16 µM, first compound 0.3 µM): 0.81% | viability, T/C (second compound 10 µM, first compound 0.000949 µM): 32.9% | viability, T/C (second compound 10 µM, first compound 0.003 µM): 39.9% | viability, T/C (second compound 10 µM, first compound 0.00949 µM): 22.2% | viability, T/C (second compound 10 µM, first compound 0.03 µM): 5.99% | viability, T/C (second compound 10 µM, first compound 0.0949 µM): 0.9% | viability, T/C (second compound 10 µM, first compound 0.3 µM): 0.59%

IC50 (compound alone, run of 10/24/2022): > 1000 nM | IC50 (compound alone, run of 11/15/2022): > 1000 nM | IC50 (curve of compound): > 1000 nM
SMILES: CNC(C)C(=O)NC1CN(S(=O)(=O)c2cccc(S(=O)(=O)N3CCC4CCC(C(=O)NC(c5ccccc5)c5ccccc5)N4C(=O)C(NC(=O)C(C)NC)C3)c2)CCC2CCC(C(=O)NC(c3ccccc3)c3ccccc3)N2C1=O (stereo not drawn)
viability, T/C (compound 0.00316 µM): 94.7% and 94.4% and 79% | viability, T/C (compound 0.01 µM): 93.9% [middle of 14 runs]

IC50 [1]: > 100 nM | IC50 [2]: < 0.316 nM | IC50 [3]: < 0.316 nM | IC50 [4]: < 0.316 nM | IC50 [5]: < 0.316 nM
SMILES: NC1CCC(NC2CC2c2ccccc2)CC1 (stereo not drawn) + Cc1c(S(C)(=O)=O)c(-c2cc(F)cc(N3CCN(c4ccc(NS(=O)(=O)c5ccc(NC(CCN6CCC(C(=O)OCCCP(=O)(O)O)CC6)CSc6ccccc6)c(S(=O)(=O)C(F)(F)F)c5)cc4)CC3)c2)c(-c2ccc(Cl)cc2)n1C(C)C
viability, T/C (second compound 0.1 µM, first compound 0.000316 µM): 69.1% | viability, T/C (second compound 0.1 µM, first compound 0.001 µM): 67.9% | viability, T/C (second compound 0.1 µM, first compound 0.00316 µM): 66% | viability, T/C (second compound 0.1 µM, first compound 0.01 µM): 59.6% | viability, T/C (second compound 0.1 µM, first compound 0.0316 µM): 66.6% | viability, T/C (second compound 0.1 µM, first compound 0.1 µM): 61.2% | viability, T/C (second compound 0.316 µM, first compound 0.000316 µM): 42.7% | viability, T/C (second compound 0.316 µM, first compound 0.001 µM): 48.9% | viability, T/C (second compound 0.316 µM, first compound 0.00316 µM): 41.6% | viability, T/C (second compound 0.316 µM, first compound 0.01 µM): 38.2% | viability, T/C (second compound 0.316 µM, first compound 0.0316 µM): 38.1% | viability, T/C (second compound 0.316 µM, first compound 0.1 µM): 45.2% | viability, T/C (second compound 1 µM, first compound 0.000316 µM): 34.1% | viability, T/C (second compound 1 µM, first compound 0.001 µM): 24.2% | viability, T/C (second compound 1 µM, first compound 0.00316 µM): 22.6% | viability, T/C (second compound 1 µM, first compound 0.01 µM): 24.2% | viability, T/C (second compound 1 µM, first compound 0.0316 µM): 26.3% | viability, T/C (second compound 1 µM, first compound 0.1 µM): 24.8% | viability, T/C (second compound 3.16 µM, first compound 0.000316 µM): 24.2% | viability, T/C (second compound 3.16 µM, first compound 0.001 µM): 18.1% | viability, T/C (second compound 3.16 µM, first compound 0.00316 µM): 17.8% | viability, T/C (second compound 3.16 µM, first compound 0.01 µM): 18.7% | viability, T/C (second compound 3.16 µM, first compound 0.0316 µM): 13.7% | viability, T/C (second compound 3.16 µM, first compound 0.1 µM): 13.2% | viability, T/C (second compound 10 µM, first compound 0.000316 µM): 20.4% | viability, T/C (second compound 10 µM, first compound 0.001 µM): 18.1% | viability, T/C (second compound 10 µM, first compound 0.00316 µM): 15.8% | viability, T/C (second compound 10 µM, first compound 0.01 µM): 18.4% | viability, T/C (second compound 10 µM, first compound 0.0316 µM): 16.8% | viability, T/C (second compound 10 µM, first compound 0.1 µM): 13.2%

IC50 (compound alone, run of 10/11/2022): > 3000 nM | IC50 (curve of compound): > 3000 nM
SMILES: CCN1C(C(=O)NC23CCC(C(=O)O)(CC2)CC3)C(c2cccc(Cl)c2F)C2(C(=O)Nc3cc(Cl)ccc32)C12CCCCC2 (stereo not drawn)
viability, T/C (compound 0.00949 µM): 107% and 93.5%
